Measurements taken from patent US10745365B2, “Luminogenic and fluorogenic compounds and methods to detect molecules or conditions” (Promega Corporation, priority 2005, dated 2020).

Assays:
[1] = biological target: T1, QuantiLum Luciferase (firefly luciferase) (Photinus pyralis, UniProt P08659); experiment: Residual active QuantiLum luciferase after reaction with derivative (Steady Glo); type: biochemical
T1 construct: purchased Promega Corporation El 70
Description: (§1) After producing the solutions in Table 37, the volume of all reactions was adjusted to 990 μl with water. […] While the light reading was being taken, a 10 μl sample of the reaction was diluted to 500 μl with enzyme stop solution (cooled on ice to 4° C.) mixed and placed on ice and a second sample of 90 μl of reaction was added to 10 μl of Gel/HPLC stop and the tube placed at −20° C. A timer was started with the start of the first reaction and the start times of the remaining reactions was noted. At 15, 30, 45 and 60 minutes, each reaction was sampled as above and the light produced in the luminometer tubes was measured. At 7 and 22 minutes, the light produced in the luminometer tubes was read, but the reactions were not sampled.
After all samples were taken, 50 μl of the sample diluted into enzyme stop solution was mixed with 50 μl of Steady Glo Luciferase Reagent (Promega) and the light produced measured after incubating at room temperature for 10 minutes. This measured the active luciferase in the initial reaction.
as §1, with “40,” for “37,”, “−200” for “−20°”

[2] = biological target: T1, QuantiLum Luciferase (firefly luciferase); experiment: Light emission of QuantiLum firefly luciferase with luciferin derivatives; type: biochemical
Description: Gel and HPLC stop solution. Solid EDTA (free acid) was placed in a beaker with water and the pH of the solution adjusted to pH 7.0. The solution was then adjusted in volume to produce a solution 400 mM in EDTA.
Enzyme stop solution. A solution was prepared containing 20 mM Bis Tris, pH 6.5, 2 mM EDTA and 1 mg/ml bovine serum albumin.
Reaction buffer (2×). A solution was made containing 100 mM HEPES buffer, pH 8.0; 10 mM MgCl2.
DTT stock. Solid DTT (dithiothreitol) was dissolved in water and then adjusted to pH 8.0 with solid sodium hydroxide. The solution was then adjusted in volume to produce a solution 1 M in DTT.
as §1
as §1, with “40,” for “37,”, “−200” for “−20°”
The DTT, Coenzyme A, and QuantiLum stock solutions are the same as those described herein.
This solution was diluted 1:1 with water to produce an enzyme solution labeled “No addition.” This solution was diluted 1:1 with 400 mM DTT, pH 8.0 to produce a solution labeled+DTT. This solution was diluted 1: 1 with 4 mM Coenzyme A to produce a solution labeled+Co A. Finally, this solution was diluted 1: 1 with a solution having both 4 mM Coenzyme A and 400 mM DTT to produce a solution labeled+Co A & DTT.
50 μl samples of these solutions were placed in the wells of luminometer microtiter plates, row A to row G, respectively. Row H of the plates was given 50 μl of water.
Reactions in these plates were initiated by addition of 50 μl of solution containing QuantiLum luciferase using a 12 channel micropipette. The solutions added to the rows were: columns 1, 5, and 9—no addition solution; columns 2, 6, and 10—+Co A solution; columns 3, 7, and 11—+DTT solution, and; columns 4, 8, and 12—+Co A and DTT solution. After addition of the enzyme solution to the first row on every plate, a timer was started. After addition of the enzyme solution to the last row on each plate, the plate was sealed and read on a Veritas luminometer.

T1 sequence (P08659 whole entry): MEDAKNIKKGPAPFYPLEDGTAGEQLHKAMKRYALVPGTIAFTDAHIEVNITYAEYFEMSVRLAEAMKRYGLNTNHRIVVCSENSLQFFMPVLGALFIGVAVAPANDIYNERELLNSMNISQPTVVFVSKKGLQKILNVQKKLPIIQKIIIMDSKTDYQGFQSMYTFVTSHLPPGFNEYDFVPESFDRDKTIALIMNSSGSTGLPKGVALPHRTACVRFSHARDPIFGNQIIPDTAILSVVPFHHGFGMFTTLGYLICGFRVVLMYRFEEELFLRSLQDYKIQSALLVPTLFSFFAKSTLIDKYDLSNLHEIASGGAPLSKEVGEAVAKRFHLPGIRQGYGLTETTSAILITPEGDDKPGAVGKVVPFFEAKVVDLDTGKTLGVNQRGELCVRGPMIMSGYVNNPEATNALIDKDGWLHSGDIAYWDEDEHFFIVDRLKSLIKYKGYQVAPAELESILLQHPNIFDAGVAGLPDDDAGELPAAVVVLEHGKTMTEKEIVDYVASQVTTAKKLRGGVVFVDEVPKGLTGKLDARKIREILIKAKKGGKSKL

O=C(O)[C@H]1CSC(c2nc3ccc(OCc4ccccc4)cc3s2)=N1 [Luc’in BE]
Light reading from residual active enzyme at time 0 min ([1]; +Co A): 186.7 | Light reading from residual active enzyme at time 15 min ([1]; +Co A): 179.6 | Light reading from residual active enzyme at time 30 min ([1]; +Co A): 179.4 | Light reading from residual active enzyme at time 45 min ([1]; +Co A): 157.9 | Light reading from residual active enzyme at time 60 min ([1]; +Co A): 161.8 | Light reading from residual active enzyme at time 0 min ([1]; +DTT): 194 | Light reading from residual active enzyme at time 15 min ([1]; +DTT): 233.7 | Light reading from residual active enzyme at time 30 min ([1]; +DTT): 224.7 | Light reading from residual active enzyme at time 45 min ([1]; +DTT): 219.5 | Light reading from residual active enzyme at time 60 min ([1]; +DTT): 226.4 | Light reading from residual active enzyme at time 0 min ([1]; +EDTA): 170 | Light reading from residual active enzyme at time 15 min ([1]; +EDTA): 142.7 | Light reading from residual active enzyme at time 30 min ([1]; +EDTA): 140.4 | Light reading from residual active enzyme at time 45 min ([1]; +EDTA): 141.7 | Light reading from residual active enzyme at time 60 min ([1]; +EDTA): 135.4 | Light reading from residual active enzyme at time 0 min ([1]; No addition): 129.7 | Light reading from residual active enzyme at time 15 min ([1]; No addition): 69.9 | Light reading from residual active enzyme at time 30 min ([1]; No addition): 47.31 | Light reading from residual active enzyme at time 45 min ([1]; No addition): 37.94 | Light reading from residual active enzyme at time 60 min ([1]; No addition): 29.08 | Light reading from residual active enzyme at time 0 min ([1]; w/o ATP): 168.3 | Light reading from residual active enzyme at time 15 min ([1]; w/o ATP): 174.1 | Light reading from residual active enzyme at time 30 min ([1]; w/o ATP): 171.7 | Light reading from residual active enzyme at time 45 min ([1]; w/o ATP): 172.9 | Light reading from residual active enzyme at time 60 min ([1]; w/o ATP): 164 | Light reading at time 0 min ([2]; +Co A): 139.5 | Light reading at time 7 min ([2]; +Co A): 11.92 | Light reading at time 15 min ([2]; +Co A): 10.99 | Light reading at time 22 min ([2]; +Co A): 9.941 | Light reading at time 30 min ([2]; +Co A): 7.379 | Light reading at time 45 min ([2]; +Co A): 7.284 | Light reading at time 60 min ([2]; +Co A): 6.433 | Light reading at time 0 min ([2]; +DTT): 948 | Light reading at time 7 min ([2]; +DTT): 532.8 | Light reading at time 15 min ([2]; +DTT): 417 | Light reading at time 22 min ([2]; +DTT): 369.5 | Light reading at time 30 min ([2]; +DTT): 331.6 | Light reading at time 45 min ([2]; +DTT): 273.5 | Light reading at time 60 min ([2]; +DTT): 226.9 | Light reading at time 0 min ([2]; +EDTA): 1.004 | Light reading at time 7 min ([2]; +EDTA): 0.771 | Light reading at time 15 min ([2]; +EDTA): 0.639 | Light reading at time 22 min ([2]; +EDTA): 0.562 | Light reading at time 30 min ([2]; +EDTA): 0.461 | Light reading at time 45 min ([2]; +EDTA): 0.425 | Light reading at time 60 min ([2]; +EDTA): 0.354 | Light reading at time 0 min ([2]; No addition): 135.2 | Light reading at time 7 min ([2]; No addition): 22.61 | Light reading at time 15 min ([2]; No addition): 12.79 | Light reading at time 22 min ([2]; No addition): 9.256 | Light reading at time 30 min ([2]; No addition): 6.928 | Light reading at time 45 min ([2]; No addition): 4.879 | Light reading at time 60 min ([2]; No addition): 3.311 | Light reading at time 0 min ([2]; w/o ATP): 0.015 | Light reading at time 7 min ([2]; w/o ATP): 0 | Light reading at time 15 min ([2]; w/o ATP): 0.008 | Light reading at time 22 min ([2]; w/o ATP): 0.005 | Light reading at time 30 min ([2]; w/o ATP): 0 | Light reading at time 45 min ([2]; w/o ATP): 0 | Light reading at time 60 min ([2]; w/o ATP): 0.01

COc1ccc2nc(C3=NC(C(=O)O)CS3)sc2c1 (stereo not drawn) [Luc’in ME]
Light reading from residual active enzyme at time 0 min ([1]; +Co A): 163.3 | Light reading from residual active enzyme at time 15 min ([1]; +Co A): 161.8 | Light reading from residual active enzyme at time 30 min ([1]; +Co A): 147.7 | Light reading from residual active enzyme at time 45 min ([1]; +Co A): 144.7 | Light reading from residual active enzyme at time 60 min ([1]; +Co A): 145.6 | Light reading from residual active enzyme at time 0 min ([1]; +DTT): 170 | Light reading from residual active enzyme at time 15 min ([1]; +DTT): 172.3 | Light reading from residual active enzyme at time 30 min ([1]; +DTT): 164.3 | Light reading from residual active enzyme at time 45 min ([1]; +DTT): 161.6 | Light reading from residual active enzyme at time 60 min ([1]; +DTT): 167.6 | Light reading from residual active enzyme at time 0 min ([1]; +EDTA): 150.5 | Light reading from residual active enzyme at time 15 min ([1]; +EDTA): 150 | Light reading from residual active enzyme at time 30 min ([1]; +EDTA): 152.1 | Light reading from residual active enzyme at time 45 min ([1]; +EDTA): 152.8 | Light reading from residual active enzyme at time 60 min ([1]; +EDTA): 151 | Light reading from residual active enzyme at time 0 min ([1]; No addition): 141.7 | Light reading from residual active enzyme at time 15 min ([1]; No addition): 35.4 | Light reading from residual active enzyme at time 30 min ([1]; No addition): 91.82 | Light reading from residual active enzyme at time 45 min ([1]; No addition): 85.72 | Light reading from residual active enzyme at time 60 min ([1]; No addition): 81.76 | Light reading from residual active enzyme at time 0 min ([1]; w/o ATP): 170 | Light reading from residual active enzyme at time 15 min ([1]; w/o ATP): 168.9 | Light reading from residual active enzyme at time 30 min ([1]; w/o ATP): 175.6 | Light reading from residual active enzyme at time 45 min ([1]; w/o ATP): 181.9 | Light reading from residual active enzyme at time 60 min ([1]; w/o ATP): 173.6 | Light reading at time 0 min ([2]; +Co A): 18.31 | Light reading at time 7 min ([2]; +Co A): 2.276 | Light reading at time 15 min ([2]; +Co A): 1.239 | Light reading at time 22 min ([2]; +Co A): 1.178 | Light reading at time 30 min ([2]; +Co A): 1.145 | Light reading at time 45 min ([2]; +Co A): 0.916 | Light reading at time 60 min ([2]; +Co A): 0.714 | Light reading at time 0 min ([2]; +DTT): 38.69 | Light reading at time 7 min ([2]; +DTT): 6.42 | Light reading at time 15 min ([2]; +DTT): 4.073 | Light reading at time 22 min ([2]; +DTT): 3.31 | Light reading at time 30 min ([2]; +DTT): 2.708 | Light reading at time 45 min ([2]; +DTT): 2.202 | Light reading at time 60 min ([2]; +DTT): 1.996 | Light reading at time 0 min ([2]; +EDTA): 1.067 | Light reading at time 7 min ([2]; +EDTA): 0.117 | Light reading at time 15 min ([2]; +EDTA): 0.058 | Light reading at time 22 min ([2]; +EDTA): 0.042 | Light reading at time 30 min ([2]; +EDTA): 0.024 | Light reading at time 45 min ([2]; +EDTA): 0.046 | Light reading at time 60 min ([2]; +EDTA): 0.012 | Light reading at time 0 min ([2]; No addition): 23.46 | Light reading at time 7 min ([2]; No addition): 3.144 | Light reading at time 15 min ([2]; No addition): 1.767 | Light reading at time 22 min ([2]; No addition): 1.317 | Light reading at time 30 min ([2]; No addition): 1.22 | Light reading at time 45 min ([2]; No addition): 0.982 | Light reading at time 60 min ([2]; No addition): 0.851 | Light reading at time 0 min ([2]; w/o ATP): 0 | Light reading at time 7 min ([2]; w/o ATP): 0.017 | Light reading at time 15 min ([2]; w/o ATP): 0.016 | Light reading at time 22 min ([2]; w/o ATP): 0 | Light reading at time 30 min ([2]; w/o ATP): 0 | Light reading at time 45 min ([2]; w/o ATP): 0.017 | Light reading at time 60 min ([2]; w/o ATP): 0.011
